Results from patent publication US10314834B2, “Therapeutic agent or treatment method for Philadelphia chromosome-positive (Ph+) acute lymphocytic leukemia (ALL) having IKZF1 mutation” (UNIVERSITY OF YAMANASHI, priority 2015, dated 2019).

What was measured:
[1] = test system: Ph+ALL strain KOPN57bi; assay: H^3-thymidine uptake method, Ph+ALL strain KOPN57bi; format: cell-based; details: Homo sapiens, 144 h, read-out: % inhibition of H^3-thymidine uptake
Excerpt: Effect in the combination was recognized from 2 days in the culture, and % inhibition reached to 90% or more on 3 days in the culture.

[2] = test system: Ph+ALL cell strain (KOPN57bi); assay: Viable cells by alamar blue method; format: cell-based, human; details: LMD 20 μM, IM 0.5 μM, 3 days
[3] = test system: Ph+ALL cell strain (KOPN57bi); assay: Cell death by Annexin V/propidium iodide (PI) double staining, flow cytometry; details: Homo sapiens, 72 h, read-out: viable cell fraction (Annexin V-, PI-)
Excerpt: At an early stage of cell death, specific phospholipids are exposed on the cell membrane. By labeling Annexin V, which strongly binds to the phospholipid, with a fluorescent dye, rate of the early cell death can be detected by using flow cytometry. On the other hand, at a late stage of cell death, cell membrane/nuclear membrane is partially destroyed.

[4] = test system: Ph+ALL cell strain (KOPN57bi); assay: Cell turnover by PI staining, flow cytometry; format: cell-based, human; details: LMD 20 μM, IM 0.5 μM, 3 days
Protocol: When PI staining is performed under the condition that the cell membrane/nuclear membrane is fixed with a drug and PI can freely bind to intranuclear DNA, staining intensity changes depending on amount of DNA. Thus, cell turnover stop phase (G0/G1 phase, 2N), DNA synthesis phase (S phase, 2N→4N), pre-cell division phase (G2 phase, 4N) and cell division phase (M phase, 4N→2N) can be distinguished each other by using flow cytometry. In addition, when the cell death is induced by apoptosis, a cell fraction that DNA amount decreases by DNA cleavage (less than 2N) from the G0/G1 phase is detected.

[5] = test system: Ph+ALL cell strain (KOPN57bi); assay: Apoptosis by active caspase-3 antibody, flow cytometry; format: cell-based, human; details: LMD 20 μM, IM 0.5 μM, 3 days, compared with no addition
Excerpt: After fixation of cell membrane, the cells were stained with anti-active caspase-3 antibodies and positive cells were investigated by using flow cytometry.

[6] = test system: Ph+ALL cell strain (KOPN57bi); assay: Immunodeficient mice transplanted with Ph+ALL cells, in vivo; design: species or system NOD/SCID/γ null mouse (NOG mouse); details: NOG mouse; LMD 30 mg/kg/day, IM 150 mg/kg/day, PO; two weeks after administration; saline approximately 30%
Excerpt: NOD/SCID/γ null mouse (NOG mouse) is widely used for research as immunodeficient mouse capable of efficiently transplanting human hematopoietic stem cells or tumor cells. A mouse transplanted with human leukemia cells is a system that can study therapeutic effect of a drug on human leukemia cells in the mouse body (in vivo). […] The mice were observed over time. Proportion of Ph+ALL cells in mononuclear cell fraction was investigated by using flow cytometry after isolating mononuclear cell fraction from mouse bone marrow blood two weeks after administration and staining with anti-human CD45 antibody binding to human leukemia cells.

[7] = test system: IKZF1 protein; assay: Change of IKZF1 expression by western blotting; format: cell-based, human; details: KOPN57bi; LMD 20 μM, IM 0.5 nM; 24 hours

Compound | inhibition at 20 µM [1] [%] | number of viable cells (alamar blue) [2] | viability at 20 µM [3] [%] | S phase fraction [4] | apoptotic fraction (less than 2N) [4] | active caspase-3 positive rate [5] | proportion of Ph+ALL cells (human CD45 positive) in bone marrow mononuclear cell fraction [6] [%] | expression of dominant-negative isoform (Ik 6) [7]
Nc1cccc2c1CN(C1CCC(=O)NC1=O)C2=O (racemic) [LMD, (RS)-3-(4-amino-1-oxo-3H-isoindol-2-yl) piperidine-2,6-dione] | ~80 | mildly decreased | ~60 | decrease | mild increase | slightly increased | 2.1 | –
Cc1ccc(NC(=O)c2ccc(CN3CCN(C)CC3)cc2)cc1Nc1nccc(-c2cccnc2)n1 [IM, 4-(4-Methylpiperazin-1-ylmethyl)-N-[4-methyl-3-(4-pyridin-3-ylpyrimidin-2-ylamino)benzamide monomethanesulfonate] | – | mildly decreased | – | – | – | slightly increased | – | No change
